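Five compound concentrations were applied to cells in 96-well plates for 48 hours; endpoints were derived by simple linear interpolation of the resulting dose-response curve. TGI marks complete inhibition of growth.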
What was measured:
Test in all cases: inhibition of tumour cell growth, NCI panel, 48 h
SF-295 CNS = test system: SF-295 CNS
COLO 205 colon = test system: COLO 205 colon
SN12C renal = test system: SN12C renal
U251 CNS = test system: U251 CNS
RXF 393 renal = test system: RXF 393 renal
SNB-19 CNS = test system: SNB-19 CNS
PC-3 prostate = test system: PC-3 prostate
OVCAR-4 ovarian = test system: OVCAR-4 ovarian
UO-31 renal = test system: UO-31 renal
HT29 colon = test system: HT29 colon
SW-620 colon = test system: SW-620 colon
MALME-3M melanoma = test system: MALME-3M melanoma
OVCAR-5 ovarian = test system: OVCAR-5 ovarian
HCT-15 colon = test system: HCT-15 colon
MCF7 breast = test system: MCF7 breast
NCI-H23 lung = test system: NCI-H23 lung
A549 NSCLC = test system: A549 NSCLC
TK-10 renal = test system: TK-10 renal
HS 578T breast = test system: HS 578T breast
SR leukemia = test system: SR leukemia
ACHN renal = test system: ACHN renal
MDA-MB-435 = test system: MDA-MB-435
SK-MEL-2 melanoma = test system: SK-MEL-2 melanoma
NCI-H460 lung = test system: NCI-H460 lung
MDA-N = test system: MDA-N
NCI/ADR-RES ovarian = test system: NCI/ADR-RES ovarian
BT-549 breast = test system: BT-549 breast
MOLT-4 leukemia = test system: MOLT-4 leukemia
NCI-H522 lung = test system: NCI-H522 lung
SK-MEL-28 melanoma = test system: SK-MEL-28 melanoma
IGROV1 ovarian = test system: IGROV1 ovarian
SNB-75 CNS = test system: SNB-75 CNS
HOP-92 NSCLC = test system: HOP-92 NSCLC
HCT-116 colon = test system: HCT-116 colon
UACC-62 melanoma = test system: UACC-62 melanoma
OVCAR-3 ovarian = test system: OVCAR-3 ovarian
786-0 renal = test system: 786-0 renal
A498 renal = test system: A498 renal
SF-539 CNS = test system: SF-539 CNS
HOP-62 NSCLC = test system: HOP-62 NSCLC
UACC-257 melanoma = test system: UACC-257 melanoma
SK-OV-3 ovarian = test system: SK-OV-3 ovarian
M14 melanoma = test system: M14 melanoma
HL-60(TB) leukemia = test system: HL-60(TB) leukemia
CCRF-CEM leukemia = test system: CCRF-CEM leukemia
DU-145 prostate = test system: DU-145 prostate
KM12 colon = test system: KM12 colon
SF-268 CNS = test system: SF-268 CNS
RPMI-8226 leukemia = test system: RPMI-8226 leukemia
K-562 leukemia = test system: K-562 leukemia
OVCAR-8 ovarian = test system: OVCAR-8 ovarian
MDA-MB-231 breast = test system: MDA-MB-231 breast
EKVX NSCLC = test system: EKVX NSCLC

For `C1=NCCN2CCN(CCN=Cc3ccccc3OCc3cccc(n3)COc3ccccc31)CC2`, which TGI (SF-295 CNS) is on record?
Its TGI is 14.1 µM.

And the TGI (COLO 205 colon)?
The TGI was > 50 µM.

What about the TGI (SN12C renal) of the same compound?
Its TGI is 26.3 µM.

And the TGI (U251 CNS)?
Its TGI is 10.2 µM.

What about the TGI (RXF 393 renal) of the same compound?
The TGI was 4.68 µM.

What about the TGI (SNB-19 CNS) of the same compound?
Its TGI is > 50 µM.

And the TGI (PC-3 prostate)?
Its TGI is > 50 µM.

What about the TGI (OVCAR-4 ovarian) of the same compound?
Its TGI is 26.6 µM.

What about the TGI (UO-31 renal) of the same compound?
Its TGI is > 50 µM.

What about the TGI (HT29 colon) of the same compound?
The TGI was 18.5 µM.

And the TGI (SW-620 colon)?
The TGI was > 50 µM.

What about the TGI (MALME-3M melanoma) of the same compound?
Its TGI is 32.4 µM.

And the TGI (OVCAR-5 ovarian)?
Its TGI is 28.3 µM.

And the TGI (HCT-15 colon)?
Its TGI is 21.4 µM.

What about the TGI (MCF7 breast) of the same compound?
The TGI was 9.29 µM.

And the TGI (NCI-H23 lung)?
The TGI was > 50 µM.

What about the TGI (A549 NSCLC) of the same compound?
The TGI was > 50 µM.

And the TGI (TK-10 renal)?
The TGI was 24.9 µM.

And the TGI (HS 578T breast)?
Its TGI is 4.43 µM.

And the TGI (SR leukemia)?
The TGI was 15.4 µM.

And the TGI (ACHN renal)?
Its TGI is 25.6 µM.

And the TGI (MDA-MB-435)?
Its TGI is 2.22 µM.

And the TGI (SK-MEL-2 melanoma)?
The TGI was > 50 µM.

What about the TGI (NCI-H460 lung) of the same compound?
Its TGI is > 50 µM.

What about the TGI (MDA-N) of the same compound?
The TGI was 2.72 µM.

And the TGI (NCI/ADR-RES ovarian)?
Its TGI is 17.2 µM.

And the TGI (BT-549 breast)?
Its TGI is 25.9 µM.

And the TGI (MOLT-4 leukemia)?
The TGI was 34.3 µM.

And the TGI (NCI-H522 lung)?
The TGI was > 50 µM.

What about the TGI (SK-MEL-28 melanoma) of the same compound?
The TGI was > 50 µM.

And the TGI (IGROV1 ovarian)?
Its TGI is 37.2 µM.

What about the TGI (SNB-75 CNS) of the same compound?
Its TGI is 32.5 µM.

And the TGI (HOP-92 NSCLC)?
The TGI was 41.6 µM.

What about the TGI (HCT-116 colon) of the same compound?
Its TGI is 18.8 µM.

And the TGI (UACC-62 melanoma)?
The TGI was 7.8 µM.

And the TGI (OVCAR-3 ovarian)?
Its TGI is 4.66 µM.

And the TGI (786-0 renal)?
The TGI was 39.5 µM.

And the TGI (A498 renal)?
The TGI was > 50 µM.

And the TGI (SF-539 CNS)?
The TGI was 14.1 µM.

What about the TGI (HOP-62 NSCLC) of the same compound?
The TGI was > 50 µM.

What about the TGI (UACC-257 melanoma) of the same compound?
The TGI was 34.4 µM.

And the TGI (SK-OV-3 ovarian)?
The TGI was > 50 µM.

What about the TGI (M14 melanoma) of the same compound?
Its TGI is > 50 µM.

And the TGI (HL-60(TB) leukemia)?
Its TGI is 22.6 µM.

What about the TGI (CCRF-CEM leukemia) of the same compound?
The TGI was > 50 µM.

What about the TGI (DU-145 prostate) of the same compound?
Its TGI is 35.7 µM.

What about the TGI (KM12 colon) of the same compound?
The TGI was 26.2 µM.

What about the TGI (SF-268 CNS) of the same compound?
The TGI was 21.1 µM.

What about the TGI (RPMI-8226 leukemia) of the same compound?
The TGI was 19.1 µM.

What about the TGI (K-562 leukemia) of the same compound?
Its TGI is > 50 µM.

What about the TGI (OVCAR-8 ovarian) of the same compound?
The TGI was 35.5 µM.

What about the TGI (MDA-MB-231 breast) of the same compound?
Its TGI is 34 µM.

And the TGI (EKVX NSCLC)?
The TGI was > 50 µM.
